Measured values: US20090082322A1, “Gender Differences in Experimental Aortic Aneurysm Formation” (THE REGENTS OF THE UNIVERSITY OF MICHIGAN, priority 2004, published 2009)

Tests used:
[1] = test system: elastase-perfused infrarenal abdominal aorta of male rats; assay: Elastase perfusion aneurysm model after estrogen pellet implantation, aortic diameter; type: in vivo, Sprague-Dawley rats; settings: 0.1-mg 21-day slow-release pellet s.c.
Description: Pancreatic porcine elastase perfusion of the rat aortas was performed as described previously. (Anidjar S, et al., Circulation, 82:973-981 (1990)). Male and female rats (n=15, each) were anesthetized with 2-2.5% isoflurane inhalation, and the infrarenal abdominal aorta was isolated under sterile conditions. Digital video micrometry was performed to directly measure outer aortic diameter. Specifically, images of the aorta were obtained using a Spot Insight Color Optical Camera (Diagnostic Instruments, Sterling Heights, Mich.) attached to an operating microscope (Nikon, Melville, N.Y.). Aortic diameters were then measured at the level of the left renal vein, the mid-infrarenal aorta, and the aortic bifurcation in triplicate using Image Pro Express software (Media Cybernetics, Inc, Silver Spring, Md.). Temporary proximal and distal aortic control was obtained using temporary 4-0 cotton suture loops, following which an aortotomy was made near the aortic bifurcation with a 30-gauge needle. […] At 7 or 14 days, aortas were re-exposed and aortic diameters were re-measured in vivo. […] The infrarenal aorta was then removed and subjected to histological study, immunohistochemistry, and quantitative polymerase chain reaction (PCR). […]

MMP-2 = MMP-2 activity in conditioned media of IL-1β stimulated male RASMCs; type: cell-based, rat; settings: 1×10^−10 to 1×10^−6 molar, with IL-1β
Description: Experiment I: Adult male and female rat aortic smooth muscle cells (RASMCs) were grown in Dulbecco's modified Eagle medium (DMEM) with 10% fetal bovine serum (FBS). RASMCs at passages four through eight were stimulated in serum-free media for 48 hours with IL-1β at doses encountered in human aortic aneurysms (2 ng/mL). The culture media was collected, and mRNA was extracted from the RASMCs. After reverse transcription to cDNA, gene expression of MMP-2 and TIMP-2 (a major MMP-2 inhibitor) was measured by real-time polymerase chain reaction. MMP-2 protein levels in conditioned media were measured by Western blotting, with MMP-2 and TIMP-2 activity quantified by standard and reverse gelatin zymography. Experiment II: Male RASMCs were incubated in DMEM containing 17-β-estradiol and IL-1β, MMP-2 activity in the conditioned media was then determined.

SMILES: C[C@]12CC[C@@H]3c4ccc(O)cc4CC[C@H]3[C@@H]1CC[C@@H]2O [17-β-estradiol]
- aortic expansion (increase in aortic diameter) ([1]; 7 days after elastase perfusion, sham 197%±39%, P=0.010): 124%±19
- aneurysm size (increase in aortic diameter) ([1]; 14 days after elastase perfusion, sham 538%±105, P=0.0226): 241%±57
- MMP-2 activity in male RASMCs (MMP-2): not altered
